From patent publication US11639355B2, “Substituted pyrrolo[3,4-d]imidazoles as MDM2-p53 inhibitors” (LUOXIN PHARMACEUTICAL (SHANGHAI) CO., LTD., priority 2018, dated 2023)
Where two headings read alike, the source gives them in different places.

Key:
[1] = Two-way permeability evaluation in Caco-2 cells; type: in vitro ADME; settings: human; for recovery at 2.5 h, 2 μM: Caco-2, pH 7.4, Caco-2
Experimental: Experiment purpose: To determine the permeability of the test compounds in Caco-2 cells
Experiment operation: Human colon cancer Caco-2 cells were inoculated on a 96-well Insert cell plate at a density of 1×10^5 cells/cm^2, and cultured for 4-5 days to form confluent monolayer cells. The test compounds was diluted with an HBSS buffer (pH 7.4) to a concentration of 2 μM, added to the top or basolateral side of the cells, and incubated at 37° C., 5% CO2 and saturated humidity for 2.5 hours, and then the sample solutions in the donor wells and receiver wells were taken and immediately mixed with a cold acetonitrile solution containing an internal standard. In addition, the cells were lysed with the cold acetonitrile solution containing the internal standard to measure the accumulation amount of intracellular compounds. The LC/MS/MS method was used to analyze the concentrations of the compounds to be tested in all samples (including an initial dosing solution, supernatant of the donor wells, receiver solution, and cell lysate). The concentrations of the test compounds were expressed by the ratio of the peak area thereof to the peak area of the internal standard to detect the permeability of the compounds from directions of A→B and B→A.

[2] = test system: P-glycoprotein (MDR1), human; assay: Two-way permeability evaluation in MDR1-MDCK cells; type: in vitro ADME; settings: dog, MDR1-MDCK
Excerpt: (§1) Experiment purpose: To determine the permeability of the test compounds in MDR1-MDCK cells
(§2) Experiment operation: MDR1-MDCK cells that permanently express human P-glycoprotein were inoculated on a 96-well Insert cell plate, and cultured for 4-7 days to form confluent monolayer cells. […] In addition, the cells were lysed with the cold acetonitrile solution containing the internal standard to measure the accumulation amount of intracellular compounds. The LC/MS/MS method was used to analyze the concentrations of the compounds to be tested in all samples (including an initial dosing solution, supernatant of the donor wells, receiver solution, and cell lysate). The concentrations of the test compounds were expressed by the ratio of the peak area thereof to the peak area of the internal standard to detect the permeability of the compounds from directions of A→B and B→A.

P-glycoprotein (MDR1) = assay: Two-way permeability evaluation in MDR1-MDCK cells; type: in vitro ADME; settings: dog, MDCK-MDR1, pH 7.4, MDR1-MDCK
Excerpt: as §1, §2

[3] = reported data; cited from earlier work
[4] = Pharmacokinetic study in mice, tail vein injection and oral cassette dosing; type: in vivo; settings: mouse, plasma, female Balb/c mice
Experimental: The purposes of the present disclosure are to study the pharmacokinetic behaviors of the compounds of the present disclosure in mice and to evaluate the pharmacokinetic characteristics thereof.
Healthy juvenile female Balb/c mice by weight of 20-30 g, 6 in total.
There were 6 female Balb/c mice, with after fasting overnight 3 mice administered a dose of 0.5 mg/kg via tail vein injection; the other 3 mice administered orally a dose of 2 mg/kg.
Blood was collected before administration and 0.08, 0.25, 0.5, 1, 2, 4, 8, and 24 hours after administration, placed in a heparinized anticoagulation tube, and centrifuged at 7000 rpm (5204 g) at 4° C., and the plasma was separated and stored at −80° C. 4 hours after administration, the mice were fed.
The LC/MS/MS method was used to determine the content of the compounds to be tested in mouse plasma after iv and oral administration. Plasma samples were analyzed after pretreatment of protein precipitation.

MV4-11 tumor cells = assay: Efficacy in mice with subcutaneously transplanted MV4-11 acute myeloid leukemia tumor; type: in vivo; settings: 6 mg/kg oral once a day
Experimental: 0.2 mL (10×10^6 cells, containing 50% Matrigel) of MV4-11 tumor cells were inoculated subcutaneously on the right back of each mouse to form a transplanted tumor; when the volume reached 100-200 mm^3, the animals were randomly grouped according to the tumor volume, with 8 in the negative control group, 8 in the positive control group, and 8 in the experimental group. […] The length (A) and width (B) of the tumor were measured with a vernier caliper twice a week, thereby calculating the tumor volume V=A×B^2/2. The calculation of relative tumor volume (RTV) follows: RTV=Vt/V0, where Vt is the tumor volume at the end of the administration, and V0 is the tumor volume measured before division into different cages for administration. The pharmacodynamic evaluation index of the anti-tumor activity is the relative tumor proliferation ratio T/C (%), and the calculation formula is: T/C (%)=TRTV/CRTV×100%. Where TRTV is the RTV of the treatment group; CRTV is the RTV of the negative control group. Efficacy evaluation criteria: T/C %>60% is invalid; T/C %≤60% and P<0.05 upon statistical treatment is valid.
CVt is the tumor volume of the control group at the end of the administration; CV0 is the tumor volume of the control group before division into different cages for administration; TVt is the tumor volume of the dosing group at the end of the administration; TV0 is the tumor volume of the dosing group before division into different cages for administration. The difference in tumor volumes between the dosing group and the control group was subjected to t-test. At the same time, the nude mice of each group were weighed twice a week to preliminarily evaluate the side effects of the drugs.

[5] = reported data; cited from earlier work; remark: listed apart in the source
[6] = read-out: Average recovery rate A→B
[7] = read-out: Average recovery rate B→A
[8] = Caco-2, 2 μM, pH 7.4, 2.5 hours

**Q.** What does the source list for `COc1ncc(-c2nc3c(n2C(C)C)[C@H](c2ccc(Cl)cc2)N(c2cc(Cl)cn(C)c2=O)C3=O)c(OC)n1` [NVP-HDM201]?
**A.** efflux ratio at 2.5 h, 2 μM ([1]; Caco-2, pH 7.4): 198; recovery at 2.5 h, 2 μM [1, 6]: 94.3%; recovery at 2.5 h, 2 μM [1, 7]: 88.3%; Papp A→B at 2.5 h, 2 μM [1, 8]: 0.17 ×10⁻⁶ cm/s; Papp B→A at 2.5 h, 2 μM [1, 8]: 34.3 ×10⁻⁶ cm/s; efflux ratio at 2.5 h, 2 μM ([2]; pH 7.4): 20.3; Papp A→B at 2.5 h, 2 μM ([2]; 2 μM, pH 7.4, 2.5 hours): 0.91 ×10⁻⁶ cm/s; Papp B→A at 2.5 h, 2 μM ([2]; 2 μM, pH 7.4, 2.5 hours): 18.4 ×10⁻⁶ cm/s; recovery at 2.5 h, 2 μM (P-glycoprotein (MDR1); [6]): 38%; recovery at 2.5 h, 2 μM (P-glycoprotein (MDR1); [7]): 50%; stability in mouse liver microsomes [3]: poor; half-life ([4]; 0.5 mg/kg, intravenous injection 0.5 mpk, read-out: Half-life T1/2 (converted)): 42.6 min; bioavailability ([4]; 2 mg/kg, iv 0.5 mpk, oral 2 mpk, read-out: Oral bioavailability F): 39.6%; AUC(0-t) ([4]; 2 mg/kg, oral administration 2 mpk, read-out: Oral exposure AUC0-t): 1.32 µM·h; RTV (21 days) (MV4-11 tumor cells): 4.68 ± 0.69; T/C (MV4-11 tumor cells; 21 days): 73.58%; TGI (MV4-11 tumor cells; 21 days): 36.91%; Tumor volume (Day 0) (MV4-11 tumor cells; Day 0, before administration): 153 ± 20 mm^3; Tumor volume (Day 21) (MV4-11 tumor cells; Day 21): 695 ± 115 mm^3; drug plasma exposure [5]: low; half-life in mice [5]: short
